Patent US7001770B1, “Calpain inhibitors and their applications” (priority 1998, dated 2006)
Square brackets hold non-standard residues; d marks the D form. Peptide text beside a SMILES is read from it. Nle = CCCC[C@H](N)C(=O)O

Tests used:
Type in all cases: cell-based
[1] = test system: p53 levels in cell lines with endogenous wildtype and mutated p53 status; experiment: Western blot of p53 levels; details: in response to calpain inhibitor 1 (FIG. 5)
SK-Hep1 cells = experiment: G0/G1 cell cycle arrest by BrdU labeling, flow cytometry; details: 5 μM CI-1 for 17 hours, 2 hour pulse; DMF control 34%
Protocol: (§1) In order to determine any increases in p53 function in response to calpain inhibitor 1, the quantity of cells undergoing G0/G1 cell cycle arrest in response to CI-1 administration, was assayed by bromodeoxyuridine labeling of cells. Each of the cell lines described in Example 2 above were exposed to a concentration of 0 or 5 μM CI-1 (in DMF) as described in Example 3 above. Cell lines treated with DMF alone or 5 μM final concentration of calpain inhibitor 1 for 17 hours were pulse labeled with a final concentration of 10 μM bromodeoxyuridine (Boehringer Mannheim) for two hours. Cells were harvested for bivariate BrdU/DNA flow cytometric analysis by fixation in 70% ethanol, followed digestion with 0.08% pepsin for 30 minutes at 37 degrees. Cells were centrifuged at 1500 RPM, and 2N HCL was added. Cells were incubated at 37 degrees for 20 minutes, followed by addition of 1M sodium borate. Cells were washed in IFA/tween 20 (0.01 M HEPES, 0.005% sodium azide, 0.5% tween 20, 5% FBS, […]), and anti-BrdU antibody, diluted 1:10 in IFA without tween 20, was added for 30 minutes. Cells were washed in IFA/tween 20, and incubated in IFA/tween 20/RNase for 15 minutes at 37 degrees.
(§2) Cells that had incorporated BrdU were stained using a FITC conjugated monoclonal antibody to BrdU (commercially available from Becton-Dickinson) and detected by FACS analysis on a FACScan FACS machine (commercially available from Becton Dickinson).

DLD1 cells = experiment: as above; details: 5 μM CI-1 for 17 hours, 2 hour pulse; 35% without calpain treatment
Protocol: as §1, §2

U87 cells = experiment: Apoptosis by annexin V-FITC staining, flow cytometry
Protocol: P53 was administered to the cells by the use of the replication defective adenoviral vector ACN53 described in Wills, et al., supra. The effect of varying concentrations of rAd-p53 (from 1×10^9 to 2×10^9 rAd-p53 particles/ml of solution) was investigated in combination with CI-1 in a range of 5–20 μm. The effects of individual and combination treatment was determined in the in DLD1, RKO, HLF and SK-Hep1 cells was investigated in substantial accordance with the teaching of Examples 2 and 3 herein. […] The results are presented in graphical format in FIG. 3 of the attached drawings. In brief, the results were as follows:
The effect of an inhibitor of μ-calpains, CI-1 (N-acetyl-leu-leu-norleucinal), was investigated for its ability to enhance p53 mediated apoptosis in tumor cell lines having p53+ and p53− status listed in Table1. […] To detect a G0/G1 block, bromodeoxyuridine (BrdU) incorporation followed by flow cytometric analysis was done 17 hours post-treatment as described in Example 4 herein. […] The results of these experiments are presented in FIGS. 1 and 2 of the attached drawings. In FIG. 1, each point on the graph represents percentage annexin V positive after background percentage (DMF alone) was subtracted.
An aliquot containing approximately 1×10^6 cells of each type was placed in a T-225 flask. The effect of varying concentrations of rAd-p53 (from 1×10^7 to 2×10^9ACN53 particles/ml of solution) was investigated in combination with CI-1 in a range of 5–20 μM. […]
Apoptosis was monitored visually by observing blebbed nuclei characteristic of apoptosis, by propidium iodide staining (using propidium iodide commercially available from Molecular Probes, Inc.) followed by flow cytometric analysis to look for subgenomic populations of cells, and by labeling cells with annexin V-FITC (commercially available from Boehringer Mannheim) in substantial accordance with the instructions provided by the manufacturer, followed by flow cytometric analysis on a FACScan Flow Cytometer (commercially available from Becton Dickinson).

[2] = test system: p53 and p21 protein levels in RKO cells; experiment: Western blot of p53 and p21 levels; details: 17 hours
Protocol: (§3) FIG. 5 contains the results of Western blots measuring the levels of p53 and p21 in rAd-p53 infected cells in the presence of varying concentrations of CI-1. Above each lane is a “+” of “−” which indicates if the cells were pulsed with 1×10^9 rAd-p53 for one hour (+) or not (−). The row of numbers below indicates the μM concentration of CI-1 to which the cells were exposed at 17 hours post-infection. The upper row of chemiluminescent signals provides the levels of p53 while the lower row of chemiluminescent signals provides the levels of p21. […] When 5 μM CI-1 was added with rAd-p53, the levels of p53 increased two fold, as quantitated on NIH imaging.
(§4) At 17 hours post treatment, cells were lysed in protein lysis buffer (50 mM tris, 250 mM NaCl, 50 mM NaF, 5 mM EDTA and 0.1% NP-40 with 1 mM PMSF). Cell lysates were subjected to electrophoresis. 10 μg of protein was added per lane on a 12% polyacrylamide gel and transfered onto nitrocellulose membranes. The membranes were subjected to western blot analysis using antibodies specific for p53 or p21 (Calbiochem, p53 antibody Ab-6, and p21 antibody Ab-7). HRP-conjugated secondary antibody (Amersham) was added for one hour at which time the blots were washed. Blots were developed using enhanced chemiluminescence detection system (Amersham) and quantitated using NIH imaging analysis.

[3] = test system: p53 and p21 protein levels in HLF cells; experiment: Western blot of p53 and p21 levels; details: 17 hours
Protocol: as §3, §4

What does the source list for `CCCC[C@@H](C=O)NC(=O)[C@H](CC(C)C)NC(=O)[C@H](CC(C)C)NC(C)=O` [CI-1, N-acetyl-leu-leu-norleucinal] (Ac-Leu-Leu-[Nle]-aldehyde)?
increase in p53 levels [1]: 2–5 ×; cells incorporating BrdU label (SK-Hep1 cells): 8%; cells incorporating BrdU (DLD1 cells): about 25%; Percentage of Cells Undergoing Apoptosis (U87 cells; 10 μM CI-1, 24 hrs): 41%; percentage of apoptotic cells (U87 cells; 20 μM CI-1 treatment, increase from 5%): 72%; cells annexin V-FITC positive (U87 cells; calpain inhibitor 1, 10 μM for 4 days): ~100%; increase in p53 and p21 levels ([2]; 5 μM CI-1 with 1×10^9 rAd-p53): two fold increase; increase in p53 levels over rAd-p53 alone ([2]; 10 μM CI-1 with 1×10^9 rAd-p53): about a five fold increase; increase in levels of p53 (NIH imaging) ([3]; 5 μM CI-1 added with 1×10^9 rAd-p53, versus rAd-p53 alone): two fold; increase in levels of p53 and p21 ([3]; 10 μM CI-1 added with 1×10^9 rAd-p53): approximately three fold
